Reference: US9695155B2, “Herbicidal substituted pyrimidinyloxy benzene compounds” (E. I. DU PONT DE NEMOURS AND COMPANY, priority 2013, dated 2017)

Legend:
galium = assay: Test D preemergence; type: in vivo, Galium aparine
From the text: (§1) Seeds of plant species selected from bluegrass (annual bluegrass, Poa annua), blackgrass (Alopecurus myosuroides), canarygrass (littleseed canarygrass, Phalaris minor), chickweed (common chickweed, Stellaria media), galium (catchweed bedstraw, Galium aparine), bromegrass, downy (downy bromegrass, Bromus tectorum), field poppy (Papaver rhoeas), field violet (Viola arvensis), green foxtail (Setaria viridis), deadnettle (henbit deadnettle, Lamium amplexicaule), Italian ryegrass (Lolium multiflorum), kochia (Kochia scoparia), lambsquarters (Chenopodium album), oilseed rape (Brassica napus), pigweed (Amaranthus retroflexus), chamomile (scentless chamomile, Matricaria inodora), Russian thistle (Salsola kali), speedwell (bird's-eye speedwell, Veronica persica), spring barley (Hordeum vulgare), spring wheat (Triticum aestivum), wild buckwheat (Polygonum convolvulus), wild mustard (Sinapis arvensis), wild oat (Avena fatua), wild radish (Raphanus raphanistrum), windgrass (Apera spica-venti), winter barley (Hordeum vulgare), and winter wheat (Triticum aestivum) were planted into a silt loam soil and treated preemergence with test chemicals formulated in a non-phytotoxic solvent mixture which included a surfactant.
(§2) At the same time, these species were planted in pots containing Redi-Earth® planting medium (Scotts Company, 14111 Scottslawn Road, Marysville, Ohio 43041) comprising spaghnum peat moss, vermiculite, wetting agent and starter nutrients and treated with postemergence applications of the test chemicals formulated in the same manner. Plants ranged in height from 2 to 18 cm (1- to 4-leaf stage). Treated plants and controls were maintained in a controlled growth environment for 7 to 21 days after which time all species were compared to controls and visually evaluated. Plant response ratings, summarized in Table D, are based on a scale of 0 to 100 where 0 is no effect and 100 is complete control. A dash (-) response means no test result.

green foxtail = assay: Test D preemergence; type: in vivo, Setaria viridis
From the text: as §1, §2

chamomile = assay: Test D postemergence; type: in vivo, Matricaria inodora
From the text: as §1, §2

speedwell = assay: Test D postemergence; type: in vivo, Veronica persica
From the text: as §1, §2

canarygrass = assay: Test D preemergence; type: in vivo, Phalaris minor
From the text: as §1, §2

chickweed = assay: Test D postemergence; type: in vivo, Stellaria media
From the text: as §1, §2

windgrass = assay: Test D preemergence; type: in vivo, Apera spica-venti
From the text: as §1, §2

pigweed = assay: Test D preemergence; type: in vivo, Amaranthus retroflexus
From the text: as §1, §2

spring barley = assay: Test D postemergence; type: in vivo, Hordeum vulgare
From the text: as §1, §2

winter barley = assay: Test D postemergence; type: in vivo, Hordeum vulgare
From the text: as §1, §2

[1] = 16 g ai/ha, scale 0 (no effect) to 100 (complete control)
[2] = 31 g ai/ha, scale 0 to 100 (0 no effect, 100 complete control)
[3] = 62 g ai/ha, scale 0 to 100 (0 no effect, 100 complete control)
[4] = 125 g ai/ha, scale 0 to 100 (0 no effect, 100 complete control)
[5] = 250 g ai/ha, scale 0 to 100 (0 no effect, 100 complete control)
[6] = 31 g ai/ha, scale 0 (no effect) to 100 (complete control)
[7] = Postemergence, 62 g ai/ha, scale 0 to 100 (0 no effect, 100 complete control)
[8] = Postemergence, 31 g ai/ha, scale 0 to 100 (0 no effect, 100 complete control)
[9] = Postemergence, 125 g ai/ha, scale 0 to 100 (0 no effect, 100 complete control)
[10] = Postemergence, 250 g ai/ha, scale 0 to 100 (0 no effect, 100 complete control)
[11] = postemergence, 16 g ai/ha, scale 0 to 100, 0 no effect, 100 complete control

Clc1cnc(Oc2ccccc2-n2cc(Cl)cn2)nc1 [Compound 3]
Plant response rating, Galium (galium; [1]): 0 | Plant response rating, Galium (galium; 31 g ai/ha, scale 0-100): 0 | Plant response rating, Galium (galium; 62 g ai/ha, scale 0-100): 10 | Plant response rating, Galium (galium; 125 g ai/ha, scale 0-100): 70 | Plant response rating, Galium (galium; 250 g ai/ha, scale 0-100): 100 | Plant response rating, Foxtail, Green (green foxtail; [1]): 10 | Plant response rating, Foxtail, Green (green foxtail; 62 g ai/ha, scale 0-100): 10 | Plant response rating, Foxtail, Green (green foxtail; 125 g ai/ha, scale 0-100): 10 | Plant response rating, Foxtail, Green (green foxtail; 250 g ai/ha, scale 0-100): 30 | Plant response rating, Chamomile (chamomile; 16 g ai/ha, scale 0-100): 0 | Plant response rating, Chamomile (chamomile; [2]): 0 | Plant response rating, Chamomile (chamomile; [3]): 0 | Plant response rating, Chamomile (chamomile; [4]): 0 | Plant response rating, Chamomile (chamomile; [5]): 0 | Plant response rating, Speedwell (speedwell; 16 g ai/ha, scale 0-100): 60 | Plant response rating, Speedwell (speedwell; [2]): 30 | Plant response rating, Speedwell (speedwell; [3]): 45 | Plant response rating, Speedwell (speedwell; [4]): 60 | Plant response rating, Speedwell (speedwell; [5]): 75 | Plant response rating, Canarygrass (canarygrass; [1]): 0 | Plant response rating, Canarygrass (canarygrass; 31 g ai/ha, scale 0-100): 0 | Plant response rating, Canarygrass (canarygrass; 62 g ai/ha, scale 0-100): 0 | Plant response rating, Canarygrass (canarygrass; 125 g ai/ha, scale 0-100): 0 | Plant response rating, Canarygrass (canarygrass; 250 g ai/ha, scale 0-100): 25 | Plant response rating, Chickweed (chickweed; 16 g ai/ha, scale 0-100): 40 | Plant response rating, Chickweed (chickweed; [2]): 0 | Plant response rating, Chickweed (chickweed; [3]): 25 | Plant response rating, Chickweed (chickweed; [4]): 30 | Plant response rating, Chickweed (chickweed; [5]): 40 | Plant response rating, Windgrass (windgrass; [1]): 0 | Plant response rating, Windgrass (windgrass; [6]): 0 | Plant response rating, Windgrass (windgrass; 62 g ai/ha, scale 0-100): 0 | Plant response rating, Windgrass (windgrass; 125 g ai/ha, scale 0-100): 10 | Plant response rating, Windgrass (windgrass; 250 g ai/ha, scale 0-100): 20 | Plant response rating, Pigweed (pigweed; [1]): 0 | Plant response rating, Pigweed (pigweed; [6]): 0 | Plant response rating, Pigweed (pigweed; 62 g ai/ha, scale 0-100): 40 | Plant response rating, Pigweed (pigweed; 125 g ai/ha, scale 0-100): 80 | Plant response rating, Pigweed (pigweed; 250 g ai/ha, scale 0-100): 100 | Plant response rating, Barley, Spring (spring barley; [7]): 0 | Plant response rating, Barley, Spring (spring barley; [8]): 0 | Plant response rating, Barley, Spring (spring barley; [9]): 0 | Plant response rating, Barley, Spring (spring barley; [10]): 10 | Plant response rating, Barley, Spring (spring barley; [11]): 50 | Plant response rating, Barley, Winter (winter barley; [7]): 0 | Plant response rating, Barley, Winter (winter barley; [8]): 0 | Plant response rating, Barley, Winter (winter barley; [9]): 0 | Plant response rating, Barley, Winter (winter barley; [10]): 0 | Plant response rating, Barley, Winter (winter barley; [11]): 50

FC(F)(F)c1cn(-c2ccccc2Oc2ncc(Cl)cn2)nn1 [Compound 166, 5-chloro-2-[2-[4-(trifluoromethyl)-1H-1,2,3-triazol-1-yl]phenoxy]pyrimidine]
pest or weed control at 16 g/ha (galium; Galium, pre-emergence, 16 g ai/ha, scale 0 (no effect) to 100 (complete control), read-out: Plant response rating, Galium): 65% | pest or weed control at 31 g/ha (galium; Galium, pre-emergence, 31 g ai/ha, scale 0-100, read-out: Plant response rating, Galium): 80% | pest or weed control at 62 g/ha (galium; Galium, pre-emergence, 62 g ai/ha, scale 0-100, read-out: Plant response rating, Galium): 100% | pest or weed control at 125 g/ha (galium; Galium, pre-emergence, 125 g ai/ha, scale 0-100, read-out: Plant response rating, Galium): 100% | pest or weed control at 16 g/ha (green foxtail; Setaria viridis, pre-emergence, 16 g ai/ha, scale 0 (no effect) to 100 (complete control), read-out: Plant response rating, Foxtail, Green): 25% | pest or weed control at 31 g/ha (green foxtail; Setaria viridis, pre-emergence, 31 g ai/ha, scale 0-100, read-out: Plant response rating, Foxtail, Green): 65% | pest or weed control at 62 g/ha (green foxtail; Setaria viridis, pre-emergence, 62 g ai/ha, scale 0-100, read-out: Plant response rating, Foxtail, Green): 100% | pest or weed control at 125 g/ha (green foxtail; Setaria viridis, pre-emergence, 125 g ai/ha, scale 0-100, read-out: Plant response rating, Foxtail, Green): 100% | pest or weed control at 16 g/ha (chamomile; Tripleurospermum inodorum, post-emergence, 16 g ai/ha, scale 0-100, read-out: Plant response rating, Chamomile): 5% | pest or weed control at 31 g/ha (chamomile; Tripleurospermum inodorum, post-emergence, 31 g ai/ha, scale 0 to 100 (0 no effect, 100 complete control), read-out: Plant response rating, Chamomile): 5% | pest or weed control at 62 g/ha (chamomile; Tripleurospermum inodorum, post-emergence, 62 g ai/ha, scale 0 to 100 (0 no effect, 100 complete control), read-out: Plant response rating, Chamomile): 10% | pest or weed control at 125 g/ha (chamomile; Tripleurospermum inodorum, post-emergence, 125 g ai/ha, scale 0 to 100 (0 no effect, 100 complete control), read-out: Plant response rating, Chamomile): 15% | pest or weed control at 16 g/ha (speedwell; Veronica persica, post-emergence, 16 g ai/ha, scale 0-100, read-out: Plant response rating, Speedwell): 70% | pest or weed control at 31 g/ha (speedwell; Veronica persica, post-emergence, 31 g ai/ha, scale 0 to 100 (0 no effect, 100 complete control), read-out: Plant response rating, Speedwell): 85% | pest or weed control at 62 g/ha (speedwell; Veronica persica, post-emergence, 62 g ai/ha, scale 0 to 100 (0 no effect, 100 complete control), read-out: Plant response rating, Speedwell): 100% | pest or weed control at 125 g/ha (speedwell; Veronica persica, post-emergence, 125 g ai/ha, scale 0 to 100 (0 no effect, 100 complete control), read-out: Plant response rating, Speedwell): 100% | pest or weed control at 16 g/ha (canarygrass; Phalaris minor, pre-emergence, 16 g ai/ha, scale 0 (no effect) to 100 (complete control), read-out: Plant response rating, Canarygrass): 30% | pest or weed control at 31 g/ha (canarygrass; Phalaris minor, pre-emergence, 31 g ai/ha, scale 0-100, read-out: Plant response rating, Canarygrass): 50% | pest or weed control at 62 g/ha (canarygrass; Phalaris minor, pre-emergence, 62 g ai/ha, scale 0-100, read-out: Plant response rating, Canarygrass): 70% | pest or weed control at 125 g/ha (canarygrass; Phalaris minor, pre-emergence, 125 g ai/ha, scale 0-100, read-out: Plant response rating, Canarygrass): 100% | pest or weed control at 16 g/ha (chickweed; Stellaria media, post-emergence, 16 g ai/ha, scale 0-100, read-out: Plant response rating, Chickweed): 55% | pest or weed control at 31 g/ha (chickweed; Stellaria media, post-emergence, 31 g ai/ha, scale 0 to 100 (0 no effect, 100 complete control), read-out: Plant response rating, Chickweed): 65% | pest or weed control at 62 g/ha (chickweed; Stellaria media, post-emergence, 62 g ai/ha, scale 0 to 100 (0 no effect, 100 complete control), read-out: Plant response rating, Chickweed): 80% | pest or weed control at 125 g/ha (chickweed; Stellaria media, post-emergence, 125 g ai/ha, scale 0 to 100 (0 no effect, 100 complete control), read-out: Plant response rating, Chickweed): 90% | pest or weed control at 16 g/ha (windgrass; Apera spica-venti, pre-emergence, 16 g ai/ha, scale 0 (no effect) to 100 (complete control), read-out: Plant response rating, Windgrass): 50% | pest or weed control at 31 g/ha (windgrass; Apera spica-venti, pre-emergence, 31 g ai/ha, scale 0 (no effect) to 100 (complete control), read-out: Plant response rating, Windgrass): 75% | pest or weed control at 62 g/ha (windgrass; Apera spica-venti, pre-emergence, 62 g ai/ha, scale 0-100, read-out: Plant response rating, Windgrass): 100% | pest or weed control at 125 g/ha (windgrass; Apera spica-venti, pre-emergence, 125 g ai/ha, scale 0-100, read-out: Plant response rating, Windgrass): 100% | pest or weed control at 16 g/ha (pigweed; Amaranthus retroflexus, pre-emergence, 16 g ai/ha, scale 0 (no effect) to 100 (complete control), read-out: Plant response rating, Pigweed): 100% | pest or weed control at 31 g/ha (pigweed; Amaranthus retroflexus, pre-emergence, 31 g ai/ha, scale 0 (no effect) to 100 (complete control), read-out: Plant response rating, Pigweed): 100% | pest or weed control at 62 g/ha (pigweed; Amaranthus retroflexus, pre-emergence, 62 g ai/ha, scale 0-100, read-out: Plant response rating, Pigweed): 100% | pest or weed control at 125 g/ha (pigweed; Amaranthus retroflexus, pre-emergence, 125 g ai/ha, scale 0-100, read-out: Plant response rating, Pigweed): 100% | plant injury at 16 g/ha (spring barley; Hordeum vulgare, post-emergence, Postemergence, 16 g ai/ha, scale 0 to 100 (0 no effect, 100 complete control), read-out: Plant response rating, Barley, Spring): 10% | plant injury at 31 g/ha (spring barley; Hordeum vulgare, post-emergence, Postemergence, 31 g ai/ha, scale 0 to 100 (0 no effect, 100 complete control), read-out: Plant response rating, Barley, Spring): 20% | plant injury at 62 g/ha (spring barley; Hordeum vulgare, post-emergence, Postemergence, 62 g ai/ha, scale 0 to 100 (0 no effect, 100 complete control), read-out: Plant response rating, Barley, Spring): 30% | plant injury at 125 g/ha (spring barley; Hordeum vulgare, post-emergence, Postemergence, 125 g ai/ha, scale 0 to 100 (0 no effect, 100 complete control), read-out: Plant response rating, Barley, Spring): 45% | plant injury at 16 g/ha (winter barley; Hordeum vulgare, post-emergence, Postemergence, 16 g ai/ha, scale 0 to 100 (0 no effect, 100 complete control), read-out: Plant response rating, Barley, Winter): 5% | plant injury at 31 g/ha (winter barley; Hordeum vulgare, post-emergence, Postemergence, 31 g ai/ha, scale 0 to 100 (0 no effect, 100 complete control), read-out: Plant response rating, Barley, Winter): 15% | plant injury at 62 g/ha (winter barley; Hordeum vulgare, post-emergence, Postemergence, 62 g ai/ha, scale 0 to 100 (0 no effect, 100 complete control), read-out: Plant response rating, Barley, Winter): 25% | plant injury at 125 g/ha (winter barley; Hordeum vulgare, post-emergence, Postemergence, 125 g ai/ha, scale 0 to 100 (0 no effect, 100 complete control), read-out: Plant response rating, Barley, Winter): 35%
